Data on two compounds can be found in ChEMBL document CHEMBL4184110 (Bioorg Med Chem Lett, 2018).

Each structure is given as a SMILES string.

The target of the data set is T1, Luciferin 4-monooxygenase (Photuris pensylvanica, UniProt Q27757).
T1 sequence (Q27757 whole entry): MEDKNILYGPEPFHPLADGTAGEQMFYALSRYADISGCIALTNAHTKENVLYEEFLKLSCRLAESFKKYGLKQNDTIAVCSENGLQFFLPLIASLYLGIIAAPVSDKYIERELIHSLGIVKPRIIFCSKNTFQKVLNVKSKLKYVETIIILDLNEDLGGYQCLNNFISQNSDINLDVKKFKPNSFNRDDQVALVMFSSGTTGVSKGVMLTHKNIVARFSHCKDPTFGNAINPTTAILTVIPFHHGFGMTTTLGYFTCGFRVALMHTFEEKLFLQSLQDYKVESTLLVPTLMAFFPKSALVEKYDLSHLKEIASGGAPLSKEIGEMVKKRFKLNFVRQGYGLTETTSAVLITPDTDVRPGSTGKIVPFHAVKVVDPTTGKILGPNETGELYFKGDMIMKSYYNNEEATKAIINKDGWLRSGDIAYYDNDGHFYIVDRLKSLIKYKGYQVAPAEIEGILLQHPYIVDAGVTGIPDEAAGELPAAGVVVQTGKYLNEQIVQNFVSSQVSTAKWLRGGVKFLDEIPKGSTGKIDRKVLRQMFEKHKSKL
The data set is described as follows: Inhibition of Photuris pennsylvanica luciferase after 45 mins by CellTiter-Glo based luminescence assay. The note with it: 0.75 h. In general terms: Cellular ATP, detected with luciferase, serves as a proxy for viable cell number.

Regarding `COC(=O)Cc1ccc(OCc2oc(-c3cccc(OC)c3)nc2C)cc1`, the “inhibition (INH)” value is reported as “Not Active”.

Regarding `COC(=O)c1ccc(OCc2oc(-c3cccc(OC)c3)nc2C)cc1`, the “inhibition (INH)” value is on record as “Not Active”.
